pIC50: −log10 of the molar value.
Tests used:
Acetylcholinesterase = Acetylcholinesterase (Electrophorus electricus, UniProt O42275); assay: Inhibition of electric eel AChE by Ellman's method
[1] = molecular target: Cholinesterase (Homo sapiens) (UniProt P06276); assay: Inhibition of BChE by Ellman's method; conditions: concentration not given here
[2] = Selectivity index, ratio of IC50 for electric eel AChE to IC50 for BChE

Sequence of Acetylcholinesterase (O42275 whole entry): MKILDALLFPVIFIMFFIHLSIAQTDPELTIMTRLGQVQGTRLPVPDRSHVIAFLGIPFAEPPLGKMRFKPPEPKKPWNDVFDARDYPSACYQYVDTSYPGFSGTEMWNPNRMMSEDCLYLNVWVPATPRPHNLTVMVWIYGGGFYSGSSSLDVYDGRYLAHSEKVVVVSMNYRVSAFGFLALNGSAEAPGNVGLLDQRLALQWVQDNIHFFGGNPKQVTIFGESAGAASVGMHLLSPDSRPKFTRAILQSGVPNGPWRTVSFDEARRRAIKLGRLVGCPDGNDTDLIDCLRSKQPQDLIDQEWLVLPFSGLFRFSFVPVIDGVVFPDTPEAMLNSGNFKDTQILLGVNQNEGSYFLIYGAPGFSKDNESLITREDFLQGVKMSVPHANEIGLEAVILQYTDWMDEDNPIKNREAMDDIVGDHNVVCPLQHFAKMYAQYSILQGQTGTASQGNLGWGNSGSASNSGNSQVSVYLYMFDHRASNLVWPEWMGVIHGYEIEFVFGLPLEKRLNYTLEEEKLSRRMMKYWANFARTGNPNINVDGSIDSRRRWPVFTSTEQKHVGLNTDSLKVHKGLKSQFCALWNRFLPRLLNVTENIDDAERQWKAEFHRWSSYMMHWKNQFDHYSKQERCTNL
Sequence of Cholinesterase (Homo sapiens) (P06276 whole entry): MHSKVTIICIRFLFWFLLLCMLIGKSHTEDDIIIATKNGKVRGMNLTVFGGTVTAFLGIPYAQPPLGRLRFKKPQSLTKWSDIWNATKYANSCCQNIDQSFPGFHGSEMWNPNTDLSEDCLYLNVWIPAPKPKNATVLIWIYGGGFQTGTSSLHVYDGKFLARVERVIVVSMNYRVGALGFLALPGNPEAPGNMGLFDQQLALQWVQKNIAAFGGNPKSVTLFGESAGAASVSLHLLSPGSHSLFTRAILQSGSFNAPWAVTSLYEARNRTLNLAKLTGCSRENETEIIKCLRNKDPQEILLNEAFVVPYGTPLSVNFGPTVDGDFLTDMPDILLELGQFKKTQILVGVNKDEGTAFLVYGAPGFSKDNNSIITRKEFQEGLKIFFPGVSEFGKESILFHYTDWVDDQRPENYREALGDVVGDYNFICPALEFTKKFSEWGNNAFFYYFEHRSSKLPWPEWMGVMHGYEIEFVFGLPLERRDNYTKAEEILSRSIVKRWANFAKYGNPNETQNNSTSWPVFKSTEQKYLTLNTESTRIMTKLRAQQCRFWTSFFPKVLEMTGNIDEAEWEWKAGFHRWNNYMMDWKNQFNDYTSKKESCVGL

SMILES | pIC50 (Acetylcholinesterase) | inhibition [1] | Ratio IC50 [2]
CCc1nc2sc3c(NCCN(C)C)ncnc3c2c2c1CCCC2 | 6.00 | – | –
CCOC(=O)c1c(-c2ccc(OC)c(OC)c2)csc1NC(=O)CCN1CCC(C)CC1 | 5.48 | < 10% | –
Cc1cc(N2CCCC2)nc2ccc(NC(=O)CCC(=O)NC3CCCCC3)cc12 | 6.00 | – | –
CCN(CC)c1ccc(NC(=O)c2nc3nc(C)cc(C(F)F)n3n2)cc1 | 6.00 | – | –
CCOC(=O)c1c(NC(=O)CCN2CCC(C)CC2)sc2c1C[C@@H](C)CC2 | 5.22 | < 10% | –
Cc1ccc(OCC(=O)Nc2ccc(CN3CCCCC3)cc2)c(C)c1 | 6.00 | – | –
O=C(C1CCN(c2nnc(N3CCCC3=O)s2)CC1)N1CCCCCC1 | 6.00 | – | 342
CCc1nn(CC(=O)NCCCN2C[C@H](C)C[C@@H](C)C2)c(=O)c2cc3sc(C)cc3n12 | 5.70 | – | 698
O=C(CN1CCCCC1)Nc1ccc(NC(=O)CN2CCCCC2)c(Cl)c1 | 6.00 | – | –
COc1ccc(Br)cc1C(=O)Nc1ccc(CN2CCCCC2)cc1 | 6.00 | – | –

Source: ChEMBL document CHEMBL1667857, “Discovery of dual binding site acetylcholinesterase inhibitors identified by pharmacophore modeling and sequential virtual screening techniques” (Bioorg Med Chem Lett, 2011)
